# Patent publication US4582851A, “Anti-bacterial 1,4-aminoalkylamino-9H-thioxanthen-9-one derivatives, compositions, and method of use therefor” (Warner-Lambert Company, priority 1985, dated 1986)
# Counter-ions that a name gives are not always drawn.
# Experiments:
# [1] = test system: P-388 lymphocytic leukemia; conditions: cited from earlier work
# P388 = conditions: cited from earlier work
# S. Faeculic = experiment: Inhibitory zone diameter, agar disc assay, S. faecalis; type: cell-based, Streptococcus faecalis; conditions: Enterococcus faecalis
# Description: (§1) 1. Preparation of inocula
# (§2) The bacterial and yeast isolates are maintained in agar slants or in liquid media, hereby designated as inoculum media. The cultures are transferred at regular intervals in such media. (See Table for the corresponding inoculum media of each culture.) The organisms are generally transferred on to agar slants or liquid inoculum media and incubated overnight (18-20 hours): 37° C. for the bacterial isolates and 28° C. for the fungal cultures.
# (§3) The microbial cells from the overnight agar slants are then scraped off and suspended in saline solution (0.85% NaCl). The microbial concentrations are adjusted to a light transmittancy of 20-35%, Junior Coleman Spectrophotometer (555M). For the organisms that are maintained in liquid media, an aliquot of the culture suspension is simply diluted with saline to 20-35% light transmittancy.
# (§4) The above microbial suspension serve as inocula for the assay plates. Thus, 0.16-10 ml (see Table for exact amount) are used to inoculate 100 ml of the molten-agar assay medium.
# (§5) Stainless steel frames, 12.3×25.3 cm (ID) and glass plates, 15.3×31.7 cm are used to make the test trays. The frames are attached to the plates with tape at each end and the inner edges sealed with 2% agar. Twenty five ml of inoculated assay medium is spread evenly on each tray and allowed to solidify. The trays are covered, inverted, and refrigerated until used.
# (§6) The compounds or samples to be tested are dissolved in suitable solvents, e.g., alcohols, dimethylsulfoxide, or N,N-dimethylformamide. The samples are generally dissolved so that the final concentration of the solvent is <10%.* The compounds are tested at different concentrations: 3,000; 1,000; 500; 100; and 10 mcg/ml. Paper discs (12.7 mm diameter) are placed on the agar trays with forceps, then 0.08 ml of the dissolved compound is pipetted onto each disc using a 0.2 ml pipette.
# (§7) The disked agar trays are incubated overnight (18-20 hours) at 37° C. for the bacterial cultures and 28° C. for the yeasts. […] The diameter of the zone is measured in mm. […]
# E. coli = experiment: Inhibitory zone diameter, agar disc assay, E. coli; type: cell-based, Escherichia coli
# Description: as §1, §2, §3, §4, §5, §6, §7
# B. Subtilis = experiment: Inhibitory zone diameter, agar disc assay, B. subtilis; type: cell-based; conditions: Bacillus subtilis; for zone of inhibition at 100 µg/mL: Conc. 100 (mg/ml)
# Description: as §1, §2, §3, §4, §5, §6, §7
# A. Viscolacti = experiment: Inhibitory zone diameter, agar disc assay, A. viscolacti; type: cell-based; conditions: read-out: Inhibitory Zone Diameter, A. viscolacti
# Description: as §1, §2, §3, §4, §5, §6, §7
# N. Catarrhali = experiment: Inhibitory zone diameter, agar disc assay, N. catarrhali; type: cell-based; conditions: Conc. 100 (mg/ml)
# Description: as §1, §2, §3, §4, §5, §6, §7
# [2] = test system: lymphocytic leukemia P388; experiment: P388 in vivo lymphocytic leukemia test; design: species or system male or female CD2 F1 mice; conditions: for P388 in vivo T/C × 100: two single doses, four-day interval; for Number of animals surviving 30 days and considered "cured": six to seven animals per group
# Description: The in vivo lymphocytic leukemia P388 test is carried out by the United States National Cancer Institute. The animals used are either male or female CD2 F1 mice. There are six to seven animals per test group. The tumor transplant is by intraperitoneal injection of dilute ascitic fluid containing cells of lymphocytic leukemia P388. The test compounds are administered intraperitoneally in two single doses with a four-day interval between doses at various dose levels following tumor inoculation. The animals are weighed and survivors are recorded on a regular basis for 30 days. A ratio of survival time for treated (T)/control (C) animals is calculated. The criterion for efficacy is T/C×100>125%. The positive control compound in this test is 1,4-dihydroxy-5,8-[bis[[2-[(2-hydroxyethyl)amino]-ethyl]]amino]-9,10-anthracenedione given at dosages ranging from 12.0 to 0.075 mg/kg. See Cancer Chemotherapy Reports, Part 3, 3, 1 (1972) for a comprehensive discussion of the protocol.
# L1210 cells = experiment: L1210 in vitro (murine leukemia cell growth); type: cell-based; conditions: Mus musculus, L1210, 72 h; 3 days, 37° C., 5% CO2; read-out: L1210 in vitro ID50
# Description: A test protocol uses L1210 cells, a murine leukemia cell line, grown in RPMI 1640 supplemented with 5% fetal bovine serum and gentamicin (50 μg/ml). Drug dilutions are prepared in the appropriate solvent and 20 μl of each dilution are added to 24-well Linbro tissue culture plates, followed by the addition of 2.0 ml of cell suspension containing 3×10^4 cells per ml. Solvent and medium controls are included in each test. After incubation at 37° C. for three days in 5% CO2, the contents of each well are removed and the cells counted in a ZBI Coulter counter. Percent growth are calculated relative to the controls and the levels of drug activity are expressed as ID50 in moles per liter.
# [3] = test system: HCT-8 (human colon adenocarcinoma) cells; experiment: HCT-8 in vitro (human colon adenocarcinoma); type: cell-based; conditions: 60-65 hrs at 37° C., read-out: HCT-8 in vitro ID50
# Description: In addition to their usefulness as antibiotic and antifungal agents and as antileukemic agents, certain of the compounds of the invention display in vitro activity against solid tumors when tested by the following procedure.
# HCT-8 (human colon adenocarcinoma) cells are trypsinized using Trypsin-EDTA. A single cell suspension is achieved by passing the cells through a 26 gauge needle with a 20 cc syringe. A cell suspension is prepared using RPMI 1640 growth medium (available from Gibco Laboratories)+10% fetal calf serum+50 μg/ml garamycin with a cell concentration of approximately 30,000 cells/ml. The cell suspension is dispensed in Linbro 24-well plates; 1 ml/well. The plates are incubated for approximately 48 hrs at 37° C. in a 5% CO2 atmosphere. At this time test compounds are added in the appropriate concentration. Five μl of the 200 μg/ml stock solution is added to each well in a primary test. Ten μl of the appropriate dilution is added to each well for a titration test. The plates are reincubated an additional 60-65 hrs at 37° C. in a 5% CO2 atmosphere. The test is read by lysing the cells using a mix of cationic surfactant, glacial acetic acid and sodium chloride. Two ml of the lysed cell suspension from each well is added to 8 ml of diluent. Each sample is read with a Coulter counter (ZBI model). The activity of each sample is measured as a percentage of the controls and the data is reported as ID50, that is the molar quantity of drug required to kill 50% of the tumor cells.
# tumor = conditions: cited from earlier work
# [4] = 12.5 mg/kg i.p. (printed 125 for Example 1)
smiles,measurement,setting,value
Cc1ccc(NCCNCCO)c2c(=O)c3ccccc3sc12,activity against the P-388 lymphocytic leukemia,[1],inactive
Cc1ccc(NCCN(C)C)c2c(=O)c3ccccc3sc12,activity against the P-388 lymphocytic leukemia,[1],inactive
CCN(CC)CCNc1ccc(C)c2sc3ccc(O)cc3c(=O)c12 [7-hydroxy analog of lucanthone],in vivo P388 activity,P388,shown to have in vivo P388 activity
"CN(C)CCNc1ccc(NCCNCCO)c2sc3ccccc3c(=O)c12.Cl.Cl.Cl [Example 1, 1-[[2-(Dimethylamino)ethyl]amino]-4-[[2-[(2-hydroxyethyl)amino]ethyl]amino]-9H-thioxanthen-9-one trihydrochloride]",zone of inhibition at 1600 µg/mL,S. Faeculic; Conc. 1600 (mg/ml),19 mm
same,zone of inhibition at 3 g/mL,"E. coli; Escherichia coli, read-out: Inhibitory Zone Diameter, E. coli",17 mm
same,zone of inhibition at 100 µg/mL,B. Subtilis,19 mm
same,zone of inhibition at 100000 µg/mL,A. Viscolacti,17 mm
same,zone of inhibition at 100 µg/mL,N. Catarrhali,21 mm
same,P388 in vivo T/C × 100,[2]; [4],190%
same,P388 in vivo T/C × 100,[2]; 25 mg/kg i.p.,236%
same,"Number of animals surviving 30 days and considered ""cured""",[2]; 25 mg/kg i.p.,1
CCN(CC)CCNc1ccc(N)c2sc3ccccc3c(=O)c12 [Example 1c],activity against the P-388 lymphocytic leukemia,[1],inactive
"CN(C)CCNc1ccc(NCCN)c2sc3ccccc3c(=O)c12 [Example 2, 4-[(2-Aminoethyl)amino]-1-[[2-(dimethylamino)ethyl]amino]-9H-thioxanthen-9-one, hydrochloride]",zone of inhibition at 500 µg/mL,S. Faeculic; Conc. 500 (mg/ml),14 mm
same,zone of inhibition at 1000 µg/mL,"E. coli; Escherichia coli, Conc. 1000 (mg/ml)",14 mm
same,zone of inhibition at 100 µg/mL,B. Subtilis,16 mm
same,zone of inhibition at 100000 µg/mL,A. Viscolacti,23 mm
same,zone of inhibition at 100 µg/mL,N. Catarrhali,20 mm
same,P388 in vivo T/C × 100,[2]; [4],187%
same,P388 in vivo T/C × 100,[2]; 25 mg/kg i.p.,212%
same,"Number of animals surviving 30 days and considered ""cured""",[2]; 25 mg/kg i.p.,1
"CN(C)CCNc1ccc(NCCCN)c2sc3ccccc3c(=O)c12.Cl.Cl.Cl [Example 3, 4-[(3-Aminopropyl)amino]-1-[[2-(dimethylamino)ethyl]amino]-9H-thioxanthen-9-one, trihydrochloride]",zone of inhibition at 3000 µg/mL,S. Faeculic; Conc. 3000 (mg/ml),18 mm
same,"Inhibitory Zone Diameter, E. coli",E. coli; concentration not given,0 mm
same,zone of inhibition at 1000 µg/mL,B. Subtilis; Conc. 1000 (mg/ml),16 mm
same,zone of inhibition at 100000 µg/mL,A. Viscolacti,14 mm
same,zone of inhibition at 100 µg/mL,N. Catarrhali,24 mm
same,P388 in vivo T/C × 100,[2]; 25 mg/kg i.p.,125%
"CN(C)CCNc1ccc([N+](=O)[O-])c2sc3ccccc3c(=O)c12 [Example 4, 1-[[2-(dimethylamino)ethyl]amino]-4-nitro-9H-thioxanthen-9-one]",IC50,L1210 cells,120 nM
same,IC50,[3],270 nM
CCN(CC)CCNc1ccc([N+](=O)[O-])c2sc3cc(OC)ccc3c(=O)c12 [Example 5 NH(CH2)2 NEt2 6-OMe],IC50,L1210 cells,1200 nM
same,IC50,[3],1100 nM
same,P388 in vivo T/C × 100,[2]; 100 mg/kg i.p.,104%
"CN(C)CCNc1ccc([N+](=O)[O-])c2sc3ccc(O)cc3c(=O)c12 [Example 5 NH(CH2)2 NMe2 7-OH, 1-[[2-(Dimethylamino)ethyl]amino]-7-hydroxy-4-nitro-9H-thioxanthen-9-one]",IC50,L1210 cells,6.5 nM
"COc1ccc2sc3c([N+](=O)[O-])ccc(NCCN(C)C)c3c(=O)c2c1 [Example 5 NH(CH2)2 NMe2 7-OMe, 1-[[2-(Dimethylamino)ethyl]amino]-7-methoxy-4-nitro-9H-thioxanthen-9-one]",IC50,L1210 cells,250 nM
same,IC50,[3],1000 nM
same,P388 in vivo T/C × 100,[2]; 100 mg/kg i.p.,178%
"CN(C)CCCNc1ccc([N+](=O)[O-])c2sc3ccccc3c(=O)c12 [Example 5 NH(CH2)3 NMe2 H, 1-[[3-(dimethylamino)propyl]amino]-4-nitro-9H-thioxanthen-9-one]",IC50,L1210 cells,96 nM
same,IC50,[3],460 nM
same,P388 in vivo T/C × 100,[2]; 50 mg/kg i.p.,190%
CCN(CC)CCNc1ccc(CO)c2sc3ccccc3c(=O)c12 [hycanthone],Experimental antitumor activity,tumor,Experimental antitumor activity has been reported
CCN(CC)CCNc1ccc(C)c2sc3ccccc3c(=O)c12 [lucanthone],Experimental antitumor activity,tumor,Experimental antitumor activity has been reported
